# Measurements: patent US10538555B2, “Macrocyclic inhibitors of the PD-1/PD-L1 and CD80(B7-1)/PD-L1 protein/protein interactions” (BRISTOL-MYERS SQUIBB COMPANY, priority 2014, dated 2020)
# Where a SMILES comes first, the peptide text is derived from it. Bridges are numbered along the chain shown (N, C = ends). [ ]: non-standard residue; d: D form. ξ: configuration not given here. Phe(3,4,5-F3) = N[C@@H](Cc1cc(F)c(F)c(F)c1)C(=O)O; Bta = N[C@@H](Cc1csc2ccccc12)C(=O)O; Hyp = O=C(O)[C@@H]1C[C@@H](O)CN1; NMeF = CN[C@@H](Cc1ccccc1)C(=O)O; NMeNle = CCCC[C@H](NC)C(=O)O; dPip = O=C(O)[C@H]1CCCCN1; hSer = N[C@@H](CCO)C(=O)O; NMeA = CN[C@@H](C)C(=O)O; Abu = CC[C@H](N)C(=O)O; ξC = NC(CS)C(=O)O; Sar = CNCC(=O)O
# Biological target: T1, Human PD-L1/PD-1 (Homo sapiens, UniProt Q9NZQ7)
# T1 construct: TVMV protease cleavage site (C); made in house; host or cells: HEK293T cells
# T1 sequence (Q9NZQ7 with tags, fused parts or gaps): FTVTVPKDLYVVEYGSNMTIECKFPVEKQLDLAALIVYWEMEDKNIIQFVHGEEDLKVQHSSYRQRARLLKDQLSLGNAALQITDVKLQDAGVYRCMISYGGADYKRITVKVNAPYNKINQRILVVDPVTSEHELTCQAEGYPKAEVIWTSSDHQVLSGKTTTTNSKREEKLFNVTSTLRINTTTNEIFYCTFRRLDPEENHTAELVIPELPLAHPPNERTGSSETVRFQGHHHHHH
# Test: HTRF Human PD-L1/PD-1 binding assay (PD-1-Ig/PD-L1-His)
# Settings: PD-L1-His 10 nM, PD-1-Ig 20 nM; class symbol; read-out: HTRF Human PD-L1/PD-1 Binding Assay IC50 Range
# Summary of the method: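 HTRF read-out (665/620 nm ratio) after 30 min equilibration with Eu-cryptate anti-Ig mAb (1 nM) and APC anti-His mAb (20 nM). Peptides preincubated 15 min with PD-L1-His (10 nM), then PD-1-Ig (20 nM) added for 15 min.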
row,IC50,Structure (SMILES)
1,1 to 9.9 nM,CCCC[C@H]1C(=O)N(C)[C@@H](CCCC)C(=O)N[C@@H](CCCNC(=N)N)C(=O)NC(C(=O)NCC(N)=O)CSCC(=O)N[C@@H](Cc2ccc(O)cc2)C(=O)N(C)[C@@H](C)C(=O)N[C@@H](CC(N)=O)C(=O)N2CCC[C@H]2C(=O)N[C@@H](CO)C(=O)N[C@@H](CCO)C(=O)N2CCC[C@H]2C(=O)N[C@@H](Cc2c[nH]c3ccccc23)C(=O)N[C@@H](CCO)C(=O)N[C@@H](Cc2c[nH]c3ccccc23)C(=O)N1C (stereo partly shown) [Example 10051] ({CH2CO}-Y[NMeA]NPS[hSer]PW[hSer]W[NMeNle][NMeNle]R[ξC]G-NH2; thioether N-14)
2,1 to 9.9 nM,CCCC[C@H]1C(=O)N(C)[C@@H](CCCC)C(=O)N[C@@H](CCCNC(=N)N)C(=O)NC(C(=O)NCC(N)=O)CSCC(=O)N[C@@H](Cc2ccc(O)cc2)C(=O)N(C)[C@@H](C)C(=O)N[C@@H](CC(N)=O)C(=O)N2CCC[C@H]2C(=O)N[C@@H](CO)C(=O)N[C@@H](CCO)C(=O)N2C[C@H](O)C[C@H]2C(=O)N[C@@H](Cc2c[nH]c3ccccc23)C(=O)N[C@@H](CCO)C(=O)N[C@@H](Cc2c[nH]c3ccccc23)C(=O)N1C (stereo partly shown) [Example 10052] ({CH2CO}-Y[NMeA]NPS[hSer][Hyp]W[hSer]W[NMeNle][NMeNle]R[ξC]G-NH2; thioether N-14)
3,10 to 99.9 nM,"CCCC[C@H]1C(=O)N2CCC[C@@H]2C(=O)N[C@@H](CC(=O)O)C(=O)N[C@@H](C)C(=O)N(C)[C@@H](Cc2ccccc2)C(=O)N[C@@H](Cc2ccc(O)cc2)C(=O)N(C)CC(=O)N[C@@H](Cc2c[nH]c3ccccc23)C(=O)N[C@@H](Cc2ccc(O)cc2)C(=O)N[C@@H](CC(C)C)C(=O)N[C@H](C(=O)NCC(N)=O)CSCC(=O)N[C@@H](Cc2cc(F)c(F)c(F)c2)C(=O)N(C)[C@@H](Cc2ccccc2)C(=O)N1C [Example 10053] ({CH2CO}-[Phe(3,4,5-F3)][NMeF][NMeNle][dP]DA[NMeF]Y[Sar]WYLCG-NH2; thioether N-13)"
4,100 to 990 nM,CCCC[C@H]1C(=O)N2CCC[C@@H]2C(=O)N[C@@H](CO)C(=O)N[C@@H](C)C(=O)N(C)[C@@H](Cc2ccccc2)C(=O)N[C@@H](Cc2ccc(O)cc2)C(=O)N(C)CC(=O)N[C@@H](Cc2c[nH]c3ccccc23)C(=O)N[C@@H](Cc2ccc(O)cc2)C(=O)N[C@@H](CC(C)C)C(=O)N[C@H](C(=O)NCC(N)=O)CSCC(=O)N[C@@H](Cc2ccccc2)C(=O)N(C)[C@@H](Cc2ccccc2)C(=O)N1C [Example 10054] ({CH2CO}-F[NMeF][NMeNle][dP]SA[NMeF]Y[Sar]WYLCG-NH2; thioether N-13)
5,100 to 990 nM,CCCC[C@H]1C(=O)N2CCC[C@@H]2C(=O)N[C@@H](CO)C(=O)N[C@@H](C)C(=O)N(C)[C@@H](Cc2ccccc2)C(=O)N[C@@H](Cc2ccc(O)cc2)C(=O)N(C)CC(=O)N[C@@H](Cc2csc3ccccc23)C(=O)N[C@@H](Cc2ccc(O)cc2)C(=O)N[C@@H](CC(C)C)C(=O)N[C@H](C(=O)NCC(N)=O)CSCC(=O)N[C@@H](Cc2ccccc2)C(=O)N(C)[C@@H](Cc2ccccc2)C(=O)N1C [Example 10055] ({CH2CO}-F[NMeF][NMeNle][dP]SA[NMeF]Y[Sar][Bta]YLCG-NH2; thioether N-13)
6,100 to 990 nM,CCCC[C@H]1C(=O)N2CCC[C@@H]2C(=O)N[C@@H](CO)C(=O)N[C@@H](C)C(=O)N(C)[C@@H](Cc2ccccc2)C(=O)N[C@@H](Cc2ccc(O)cc2)C(=O)N2CCCC[C@@H]2C(=O)N[C@@H](Cc2c[nH]c3ccccc23)C(=O)N[C@@H](Cc2ccc(O)cc2)C(=O)N[C@@H](CC(C)C)C(=O)N[C@H](C(=O)NCC(N)=O)CSCC(=O)N[C@@H](Cc2ccccc2)C(=O)N(C)[C@@H](Cc2ccccc2)C(=O)N1C [Example 10056] ({CH2CO}-F[NMeF][NMeNle][dP]SA[NMeF]Y[dPip]WYLCG-NH2; thioether N-13)
7,10 to 99.9 nM,CCCC[C@H]1C(=O)N2CCC[C@@H]2C(=O)N[C@@H](CO)C(=O)N[C@@H](CC)C(=O)N(C)[C@@H](Cc2ccccc2)C(=O)N[C@@H](Cc2ccc(O)cc2)C(=O)N(C)CC(=O)N[C@@H](Cc2c[nH]c3ccccc23)C(=O)N[C@@H](Cc2ccc(O)cc2)C(=O)N[C@@H](CC(C)C)C(=O)N[C@H](C(=O)NCC(N)=O)CSCC(=O)N[C@@H](Cc2ccccc2)C(=O)N(C)[C@@H](Cc2ccccc2)C(=O)N1C [Example 10058] ({CH2CO}-F[NMeF][NMeNle][dP]S[Abu][NMeF]Y[Sar]WYLCG-NH2; thioether N-13)
8,10 to 99.9 nM,CCCC[C@H]1C(=O)N2CCC[C@@H]2C(=O)N[C@@H](CO)C(=O)N[C@@H](CC)C(=O)N(C)[C@@H](Cc2ccccc2)C(=O)N[C@@H](Cc2ccc(O)cc2)C(=O)N(C)CC(=O)N[C@@H](Cc2csc3ccccc23)C(=O)N[C@@H](Cc2ccc(O)cc2)C(=O)N[C@@H](CC(C)C)C(=O)N[C@H](C(=O)NCC(N)=O)CSCC(=O)N[C@@H](Cc2ccccc2)C(=O)N(C)[C@@H](Cc2ccccc2)C(=O)N1C [Example 10059] ({CH2CO}-F[NMeF][NMeNle][dP]S[Abu][NMeF]Y[Sar][Bta]YLCG-NH2; thioether N-13)
9,10 to 99.9 nM,CCCC[C@H]1C(=O)N2CCC[C@@H]2C(=O)N[C@@H](CO)C(=O)N[C@@H](CC)C(=O)N(C)[C@@H](Cc2ccccc2)C(=O)N[C@@H](Cc2ccc(O)cc2)C(=O)N2CCCC[C@@H]2C(=O)N[C@@H](Cc2c[nH]c3ccccc23)C(=O)N[C@@H](Cc2ccc(O)cc2)C(=O)N[C@@H](CC(C)C)C(=O)N[C@H](C(=O)NCC(N)=O)CSCC(=O)N[C@@H](Cc2ccccc2)C(=O)N(C)[C@@H](Cc2ccccc2)C(=O)N1C [Example 10060] ({CH2CO}-F[NMeF][NMeNle][dP]S[Abu][NMeF]Y[dPip]WYLCG-NH2; thioether N-13)
10,10 to 99.9 nM,CCCC[C@H]1C(=O)N(C)CC(=O)N[C@@H](CO)C(=O)N[C@@H](CC)C(=O)N(C)[C@@H](Cc2ccccc2)C(=O)N[C@@H](Cc2ccc(O)cc2)C(=O)N2CCCC[C@@H]2C(=O)N[C@@H](Cc2c[nH]c3ccccc23)C(=O)N[C@@H](Cc2ccc(O)cc2)C(=O)N[C@@H](CC(C)C)C(=O)N[C@H](C(=O)NCC(N)=O)CSCC(=O)N[C@@H](Cc2ccccc2)C(=O)N(C)[C@@H](Cc2ccccc2)C(=O)N1C [Example 10061] ({CH2CO}-F[NMeF][NMeNle][Sar]S[Abu][NMeF]Y[dPip]WYLCG-NH2; thioether N-13)
11,10 to 99.9 nM,CCCC[C@H]1C(=O)N2CCC[C@@H]2C(=O)N[C@@H](CO)C(=O)N[C@@H](C(C)C)C(=O)N(C)[C@@H](Cc2ccccc2)C(=O)N[C@@H](Cc2ccc(O)cc2)C(=O)N(C)CC(=O)N[C@@H](Cc2c[nH]c3ccccc23)C(=O)N[C@@H](Cc2ccc(O)cc2)C(=O)N[C@@H](CC(C)C)C(=O)N[C@H](C(=O)NCC(N)=O)CSCC(=O)N[C@@H](Cc2ccccc2)C(=O)N(C)[C@@H](Cc2ccccc2)C(=O)N1C [Example 10062] ({CH2CO}-F[NMeF][NMeNle][dP]SV[NMeF]Y[Sar]WYLCG-NH2; thioether N-13)
12,10 to 99.9 nM,CCCC[C@H]1C(=O)N2CCC[C@@H]2C(=O)N[C@@H](CO)C(=O)N[C@@H](C(C)C)C(=O)N(C)[C@@H](Cc2ccccc2)C(=O)N[C@@H](Cc2ccc(O)cc2)C(=O)N(C)CC(=O)N[C@@H](Cc2csc3ccccc23)C(=O)N[C@@H](Cc2ccc(O)cc2)C(=O)N[C@@H](CC(C)C)C(=O)N[C@H](C(=O)NCC(N)=O)CSCC(=O)N[C@@H](Cc2ccccc2)C(=O)N(C)[C@@H](Cc2ccccc2)C(=O)N1C [Example 10063] ({CH2CO}-F[NMeF][NMeNle][dP]SV[NMeF]Y[Sar][Bta]YLCG-NH2; thioether N-13)
13,10 to 99.9 nM,CCCC[C@H]1C(=O)N2CCC[C@@H]2C(=O)N[C@@H](CO)C(=O)N[C@@H](C(C)C)C(=O)N(C)[C@@H](Cc2ccccc2)C(=O)N[C@@H](Cc2ccc(O)cc2)C(=O)N2CCCC[C@@H]2C(=O)N[C@@H](Cc2c[nH]c3ccccc23)C(=O)N[C@@H](Cc2ccc(O)cc2)C(=O)N[C@@H](CC(C)C)C(=O)N[C@H](C(=O)NCC(N)=O)CSCC(=O)N[C@@H](Cc2ccccc2)C(=O)N(C)[C@@H](Cc2ccccc2)C(=O)N1C [Example 10064] ({CH2CO}-F[NMeF][NMeNle][dP]SV[NMeF]Y[dPip]WYLCG-NH2; thioether N-13)
14,10 to 99.9 nM,CCCC[C@H]1C(=O)N(C)CC(=O)N[C@@H](CO)C(=O)N[C@@H](C(C)C)C(=O)N(C)[C@@H](Cc2ccccc2)C(=O)N[C@@H](Cc2ccc(O)cc2)C(=O)N2CCCC[C@@H]2C(=O)N[C@@H](Cc2c[nH]c3ccccc23)C(=O)N[C@@H](Cc2ccc(O)cc2)C(=O)N[C@@H](CC(C)C)C(=O)N[C@H](C(=O)NCC(N)=O)CSCC(=O)N[C@@H](Cc2ccccc2)C(=O)N(C)[C@@H](Cc2ccccc2)C(=O)N1C [Example 10065] ({CH2CO}-F[NMeF][NMeNle][Sar]SV[NMeF]Y[dPip]WYLCG-NH2; thioether N-13)
15,1 to 9.9 nM,"CCCC[C@H]1C(=O)N2CCC[C@@H]2C(=O)N[C@@H](CO)C(=O)N[C@@H](C(C)C)C(=O)N(C)[C@@H](Cc2ccccc2)C(=O)N[C@@H](Cc2ccc(O)cc2)C(=O)N2CCC[C@@H]2C(=O)N[C@@H](Cc2c[nH]c3ccccc23)C(=O)N[C@@H](Cc2ccc(O)cc2)C(=O)N[C@@H](CC(C)C)C(=O)N[C@H](C(=O)NCC(N)=O)CSCC(=O)N[C@@H](Cc2cc(F)c(F)c(F)c2)C(=O)N(C)[C@@H](Cc2ccccc2)C(=O)N1C [Example 10066] ({CH2CO}-[Phe(3,4,5-F3)][NMeF][NMeNle][dP]SV[NMeF]Y[dP]WYLCG-NH2; thioether N-13)"

# Same assay, conditions: PD-L1-His 10 nM, PD-1-Ig 20 nM; read-out: HTRF Human PD-L1/PD-1 Binding Assay IC50
row,IC50,Structure (SMILES)
1,215 nM,CCCC[C@H]1C(=O)N(C)CC(=O)N[C@@H](CO)C(=O)N[C@@H](C)C(=O)N(C)[C@@H](Cc2ccccc2)C(=O)N[C@@H](Cc2ccc(O)cc2)C(=O)N2CCCC[C@@H]2C(=O)N[C@@H](Cc2c[nH]c3ccccc23)C(=O)N[C@@H](Cc2ccc(O)cc2)C(=O)N[C@@H](CC(C)C)C(=O)N[C@H](C(=O)NCC(N)=O)CSCC(=O)N[C@@H](Cc2ccccc2)C(=O)N(C)[C@@H](Cc2ccccc2)C(=O)N1C [Example 10057] ({CH2CO}-F[NMeF][NMeNle][Sar]SA[NMeF]Y[dPip]WYLCG-NH2; thioether N-13)
